The record followed here is patent US4308380A, “2-Lower alkyl-2 or 3-cephem-4-carboxylic acid derivatives” (Fujisawa Pharmaceutical Co., Ltd., priority 1973, dated 1981).

What all share (assay type): cell-based
Experiment [1] has as its system Staphylococcus aureus 209 P JC-1. Kind of experiment: in vitro antimicrobial activity, two-fold agar-plate dilution method, S. aureus 209 P JC-1. How it is done: (§1) In vitro antimicrobial activity was determined by the two-fold agar-plate dilution method as described below.
(§2) One loopful of an overnight culture of each test strain in Trypticase-soy broth (10^8 viable cells per ml) was streaked on heart infusion agar (HI-agar) containing graded concentration of antibiotics, and the minimum inhibitory concentration (MIC) was expressed in terms of meg/ml after incubation at 37° C. for 20 hours.
(§3) The data in Table 1 below present a comparison between the 2-(C1 -C6 alkyl)-cephem compounds of the present invention and known cephem compounds structurally analogous to the present compounds, differing only by alkyl substitution in the 3-position. The in vitro tests of antimicrobial activity of the compared compounds were determined by the two-fold agar plate dilution method described as follows:
(§4) One loopful of an overnight culture of each test strain in Trypticase-soy broth (10^8 viable cells per ml) was streaked on heart infusion agar (HI sugar) containing graded concentration of antibiotics, and the minimum inhibitory concentration (MIC) was expressed in terms of mcg/ml after incubation at 37° C. for 20 hours.

For experiment [2], the system named is Bacillus subtilis ATCC-6633. Kind of experiment: in vitro antimicrobial activity, two-fold agar-plate dilution method, B. subtilis ATCC-6633. Here is the method: as §1, §2, §3, §4
The test system of experiment [3] is Staphylococcus aureus 277. Kind of experiment: in vitro antimicrobial activity, two-fold agar plate dilution method, S. aureus 277. Conditions: Table 1, S. aureus 277, 37° C., 20 hours, read-out: minimum inhibitory concentration (MIC). Here is the method:
(§5) The in vitro tests of antimicrobial activity of the compared compounds were determined by the two-fold agar plate dilution method described as follows: […]

The test system of experiment [4] is Staphylococcus aureus 226. Kind of experiment: in vitro antimicrobial activity, two-fold agar plate dilution method, S. aureus 226. Conditions: Table 1, S. aureus 226, 37° C., 20 hours, read-out: minimum inhibitory concentration (MIC). How it is done:
as §5

For experiment [5], the system named is Staphylococcus aureus 278. Kind of experiment: in vitro antimicrobial activity, two-fold agar plate dilution method, S. aureus 278. Particulars: Table 1, S. aureus 278, 37° C., 20 hours, read-out: minimum inhibitory concentration (MIC). How it is done: as §5
Experiment [6] relates to Staphylococcus aureus 213. Kind of experiment: in vitro antimicrobial activity, two-fold agar plate dilution method, S. aureus 213. Particulars: Table 1, S. aureus 213, 37° C., 20 hours, read-out: minimum inhibitory concentration (MIC). How it is done:
as §5

In experiment [7] the test system is Staphylococcus aureus 206. Kind of experiment: in vitro antimicrobial activity, two-fold agar plate dilution method, S. aureus 206. Particulars: Table 1, S. aureus 206, 37° C., 20 hours, read-out: minimum inhibitory concentration (MIC). Here is the method: as §5
Setting [8] is: 209PJC1, Table 1, S. aureus 209 P JC-1, 37° C., 20 hours, read-out: minimum inhibitory concentration (MIC).
[9] abbreviates: ATCC6633, Table 1, B. subtilis ATCC-6633, 37° C., 20 hours, read-out: minimum inhibitory concentration (MIC).

Values after ≈ are worked out from the molar mass of the structure shown. Where a name gives a salt, the structure may show the parent alone. Read-outs that look alike come from different tables or passages of the source.

Take `CSc1ccc(C(N)C(=O)NC2C(=O)N3C(C(=O)O)=CC(C)S[C@H]23)cc1` (stereo partly shown) [Applicants' compound (16), 2-Methyl-7-[2-amino-2-(4-methylthiophenyl)acetamido]-3-cephem-4-carboxylicacid]: the MIC in experiment [1] (setting [8]) was 3.13 µg/mL (≈ 7.95 µM); in experiment [1] (S. aureus 209-P JC-1, 37° C., 20 hours, HI-agar, read-out: MIC), 3.13 µg/mL (≈ 7.95 µM); in experiment [2] (ATCC6633, B. subtilis ATCC-6633, 37° C., 20 hours, HI-agar, read-out: MIC), 6.25 µg/mL (≈ 15.9 µM); in experiment [2] (setting [9]), 6.25 µg/mL (≈ 15.9 µM); in experiment [3], 25 µg/mL (≈ 63.5 µM); in experiment [4], 6.25 µg/mL (≈ 15.9 µM). The MIC in experiment [5] came to 12.5 µg/mL (≈ 31.8 µM); in experiment [6], 25 µg/mL (≈ 63.5 µM); in experiment [7], 6.25 µg/mL (≈ 15.9 µM).
On to `CC1C=C(C(=O)O)N2C(=O)C(NC(=O)Cc3csc(N)n3)[C@H]2S1` (stereo partly shown) [Applicants' compound (17), 2-Methyl-7-[2-(2-aminothiazol-4-yl)acetamido]-3-cephem-4-carboxylic acid], for which the MIC is 1.56 µg/mL (≈ 4.4 µM) in experiment [1] (setting [8]); 3.13 µg/mL (≈ 8.83 µM) in experiment [2] (setting [9]); 1.56 µg/mL (≈ 4.4 µM) in experiment [3]; 1.56 µg/mL (≈ 4.4 µM) in experiment [4]; 1.56 µg/mL (≈ 4.4 µM) in experiment [5]; 1.56 µg/mL (≈ 4.4 µM) in experiment [6]. Besides, the MIC in experiment [7] is 3.13 µg/mL (≈ 8.83 µM).
Turning to `CC1=C(C(=O)O)N2C(=O)C(NC(=O)C(O)c3cccs3)C2SC1` (stereo not shown) [cited compound (2), 3-Methyl-7-[2-hydroxy-2-(2-thienyl)acetamido]-3-cephem-4-carboxylic acid (sodium salt), reference compound], the MIC in experiment [1] (setting [8]) was determined as 6.25 µg/mL; in experiment [2] (setting [9]) it was 1.56 µg/mL; in experiment [3], 12.5 µg/mL; in experiment [4], 12.5 µg/mL; in experiment [5] it was 12.5 µg/mL; in experiment [6], 25 µg/mL. For the same molecule, the MIC in experiment [7] came out at 6.25 µg/mL.
In the case of `CC1=C(C(=O)O)N2C(=O)C(NC(=O)C(OC(=O)c3ccncc3)c3ccccc3)C2SC1` (stereo not shown) [cited compound (4), reference compound], the MIC is 1.56 µg/mL (≈ 3.44 µM) in experiment [1] (setting [8]); 0.78 µg/mL (≈ 1.72 µM) in experiment [2] (setting [9]); 12.5 µg/mL (≈ 27.6 µM) in experiment [3]; 12.5 µg/mL (≈ 27.6 µM) in experiment [4]; 12.5 µg/mL (≈ 27.6 µM) in experiment [5]; 12.5 µg/mL (≈ 27.6 µM) in experiment [6]. For the same molecule, the MIC in experiment [7] was found to be 12.5 µg/mL (≈ 27.6 µM).
Consider `CC1=C(C(=O)O)N2C(=O)C(NC(=O)Cc3cccs3)[C@H]2SC1` (stereo partly shown) [cited compound (5), 3-Methyl-7-[2-(2-thienyl)acetamido]-3-cephem-4-carboxylic acid, reference compound], for which the MIC came to 3.13 µg/mL (≈ 9.25 µM) in experiment [1] (setting [8]); 0.78 µg/mL (≈ 2.3 µM) in experiment [2] (setting [9]); 12.5 µg/mL (≈ 36.9 µM) in experiment [3]; 12.5 µg/mL (≈ 36.9 µM) in experiment [4]; 6.25 µg/mL (≈ 18.5 µM) in experiment [5]; 12.5 µg/mL (≈ 36.9 µM) in experiment [6]. Moreover, the MIC in experiment [7] is 3.13 µg/mL (≈ 9.25 µM).
Turning to `CC1=C(C(=O)O)N2C(=O)C(NC(=O)C(O)c3ccccc3)[C@H]2SC1` (stereo partly shown) [cited compound (7), 3-Methyl-7-(2-hydroxy-2-phenylacetamido)-3-cephem-4-carboxylic acid, reference compound], the MIC in experiment [1] (setting [8]) came to 3.13 µg/mL (≈ 8.98 µM); in experiment [2] (setting [9]), 1.56 µg/mL (≈ 4.48 µM); in experiment [3], 12.5 µg/mL (≈ 35.9 µM); in experiment [4], 12.5 µg/mL (≈ 35.9 µM); in experiment [5], 12.5 µg/mL (≈ 35.9 µM); in experiment [6], 25 µg/mL (≈ 71.8 µM). The MIC in experiment [7] stood at 12.5 µg/mL (≈ 35.9 µM).
Consider `CC1=C(C(=O)O)N2C(=O)C(NC(=O)Cc3ccccc3)[C@H]2SC1` (stereo partly shown) [cited compound (8), 3-Methyl-7-(2-phenylacetamido)-3-cephem-4-carboxylic acid, reference compound], for which the MIC in experiment [1] (209PJC1, 20 h, read-out: minimum inhibitory concentration (MIC)) is 1.56 µg/mL (≈ 4.69 µM); in experiment [2] (ATCC6633, 20 h, read-out: minimum inhibitory concentration (MIC)) it was 0.78 µg/mL (≈ 2.35 µM); in experiment [3] it was 1.56 µg/mL (≈ 4.69 µM); in experiment [4], 3.13 µg/mL (≈ 9.42 µM); in experiment [5], 3.13 µg/mL (≈ 9.42 µM); in experiment [6], 6.25 µg/mL (≈ 18.8 µM). In experiment [7], the MIC came out at 6.25 µg/mL (≈ 18.8 µM).
Turning to `CC1=C(C(=O)O)N2C(=O)C(NC(=O)CSc3ccccc3)C2SC1` (stereo not shown) [cited compound (9), 3-Methyl-7-(2-phenylthioacetamido)-3-cephem-4-carboxylic acid, reference compound], the MIC in experiment [1] (setting [8]) amounted to 0.39 µg/mL (≈ 1.07 µM); in experiment [2] (setting [9]), 0.39 µg/mL (≈ 1.07 µM); in experiment [3], 0.39 µg/mL (≈ 1.07 µM); in experiment [4], 1.56 µg/mL (≈ 4.28 µM); in experiment [5], 0.39 µg/mL (≈ 1.07 µM); in experiment [6], 0.78 µg/mL (≈ 2.14 µM). Further, the MIC in experiment [7] worked out at 0.39 µg/mL (≈ 1.07 µM).
